Source: ChEMBL document CHEMBL6096687, “In Vivo Stability Improvement of Astatobenzene Derivatives by Introducing Neighboring Substituents” (J Med Chem, 2025)

Experiments:
[1] = Stability in mouse plasma assessed as parent compound remaining measured after 1 hrs by TLC analysis; assay type: ADME, cell-free; details: read-out: Stability
[2] = In vivo stability in male ddY mouse stomach assessed as decrease in radioactivity at 37 kBq, iv measured after 10 to 240 mins by autowell-gamma counter analysis; assay type: ADME, organism-based; details: time 10-240 min
[3] = In vivo stability in male ddY mouse thyroid gland assessed as decrease in radioactivity at 37 kBq, iv measured after 10 to 240 mins by autowell-gamma counter analysis; assay type: ADME, organism-based; details: time 10-240 min
[4] = Drug accumulation in male ddY mouse liver at 37 kBq, iv measured after 10 to 240 mins by autowell-gamma counter analysis; assay type: ADME, organism-based; details: in vivo, time 10-240 min
[5] = Drug accumulation in male ddY mouse intestine at 37 kBq, iv measured after 10 to 240 mins by autowell-gamma counter analysis; assay type: ADME, organism-based; details: in vivo, time 10-240 min
[6] = Drug accumulation in male ddY mouse kidney at 37 kBq, iv measured after 10 to 240 mins by autowell-gamma counter analysis; assay type: ADME, organism-based; details: in vivo, time 10-240 min
[7] = In vivo metabolic stability in male ddY mouse urine assessed as intact compound at 37 kBq, iv measured after 1 hrs by RP-HPLC analysis; assay type: ADME, organism-based; details: read-out: Stability
Albumin = Albumin (Homo sapiens, UniProt P02768); assay: Binding affinity to human serum albumin assessed as binding constant by ITC analysis; assay type: ADME; details: isolated protein
Albumin, sequence (P02768 whole entry): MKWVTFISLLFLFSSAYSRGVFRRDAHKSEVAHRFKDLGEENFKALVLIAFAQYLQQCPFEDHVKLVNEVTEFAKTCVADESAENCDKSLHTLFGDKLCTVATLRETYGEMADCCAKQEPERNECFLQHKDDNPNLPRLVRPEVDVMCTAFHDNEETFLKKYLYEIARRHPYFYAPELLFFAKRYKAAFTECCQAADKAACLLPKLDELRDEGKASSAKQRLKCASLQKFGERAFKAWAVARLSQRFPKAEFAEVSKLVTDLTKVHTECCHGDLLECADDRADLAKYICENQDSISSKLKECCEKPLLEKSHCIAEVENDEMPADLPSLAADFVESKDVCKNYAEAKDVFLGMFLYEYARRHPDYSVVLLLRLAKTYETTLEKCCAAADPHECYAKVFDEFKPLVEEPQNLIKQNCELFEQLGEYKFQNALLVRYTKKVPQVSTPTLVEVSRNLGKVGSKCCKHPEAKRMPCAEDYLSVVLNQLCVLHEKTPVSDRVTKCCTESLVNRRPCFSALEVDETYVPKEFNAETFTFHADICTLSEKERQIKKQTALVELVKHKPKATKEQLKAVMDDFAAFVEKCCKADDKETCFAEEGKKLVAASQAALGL

## COCOCc1cc(C(=O)NCC(=O)O)cc(COCOC)c1[125I]
[1]
  remaining at 1 h: 92.9%
[2]
  Stability: Stable
[3]
  Stability: Stable

## CN(C)C(=O)c1cc(C(=O)NCC(=O)O)ccc1[211At]
[1]
  remaining at 1 h: 95.8%
[2]
  Stability: Unstable
[3]
  Stability: Unstable

## O=C(O)CNC(=O)c1cc(CO)c([125I])c(CO)c1
[1]
  remaining at 1 h: 95.8%
[2]
  Stability: Stable
[3]
  Stability: Stable
[4]
  Drug uptake: Active
[5]
  Drug uptake: Active
[6]
  Drug uptake: Active

## O=C(O)CNC(=O)c1cc(CO)c([211At])c(CO)c1
[1]
  remaining at 1 h: 88.7%
[2]
  Stability: Unstable
[3]
  Stability: Unstable

## CN(C)C(=O)c1cc(C(=O)NCC(=O)O)ccc1[125I]
[1]
  remaining at 1 h: 96.9%
[4]
  Drug uptake: Active
[5]
  Drug uptake: Active
[6]
  Drug uptake: Active

## CN(C)C(=O)c1cc(C(=O)NCC(=O)O)cc(C(=O)N(C)C)c1[211At]
[1]
  remaining at 1 h: 92%
[2]
  Stability: Stable
[3]
  Stability: Stable
[7]
  remaining at 1 h: 86.4%
[4]
  Drug uptake: Active
[5]
  Drug uptake: Active

## O=C(O)CNC(=O)c1ccccc1 [HIPPURIC ACID]
Albumin
  Kb: 1000 M⁻¹

## COCOCc1cc(C(=O)NCC(=O)O)cc(COCOC)c1[211At]
[1]
  remaining at 1 h: 81.5%
[2]
  Stability: Unstable
[3]
  Stability: Unstable

## CN(C)C(=O)c1cc(C(=O)NCC(=O)O)cc(C(=O)N(C)C)c1[125I]
[1]
  remaining at 1 h: 92.7%
[2]
  Stability: Stable
[3]
  Stability: Stable
[7]
  remaining at 1 h: 75.7%
[4]
  Drug uptake: Active
[5]
  Drug uptake: Active
[6]
  Drug uptake: Active

## O=C(O)CNC(=O)c1ccc([125I])cc1
[1]
  remaining at 1 h: 98.4%
[2]
  Stability: Stable
[3]
  Stability: Stable
[6]
  Drug uptake: Active

## O=C(O)CNC(=O)c1ccc([211At])cc1
[1]
  remaining at 1 h: 81.4%
[2]
  Stability: Unstable
[3]
  Stability: Unstable
